Data set [1] has as its system A375 skin melanoma cell line (homozygous BRAF V600E). Put plainly: Cell proliferation assay (resazurin cell viability), A375 cell line. It counts as cell-based. An excerpt: (§1) Cell Proliferation Assays with Chromodepsins (compounds (A1) and 2-15): Cell line descriptions: 92.1—uveal melanoma cell line, derived from primary tumor, harboring heterozygous GNAQ Q209L mutation. Purchased from Sigma Aldrich. MP41 (CRL-3297) -uveal melanoma cell line, derived from primary tumor, harboring heterozygous GNA11 Q209L mutation. Purchased from ATCC. A375—skin melanoma cell line, harboring homozygous BRAF V600E mutation. Origin: Cancer Cell Line Encyclopedia (CCLE). SK-MEL-30—skin melanoma cell line, harboring heterozygous NRAS Q61K mutation. Origin: CCLE.
(§2) Cells were cultured in 96-well plates in a total volume of 100 μL at 37° C., 5% CO2 and 95% relative humidity. All cell lines were cultured in RPMI Medium (RPMI 1640 w/o L-glutamine, Bioconcept ref. 1-41F01-I) except A375, DMEM medium (DMEM high glucose (4.5 g/L), Bioconcept, ref. 1-26F01-I), and supplemented with 10% FCS (Bioconcept, ref. 2-01F30-I). Two to three thousand cells were seeded in 96-well plates per well the night before they were treated with compounds (concentration range: from 260 nM to 0.036 nM with ⅓ dilution steps; for 7 the concentration range was increased from 10000 nM to 1.52 nM with ⅓ dilution steps). Cell viability was measured by addition of 10 ul of resazurin per well after 96 hours of treatment. Results were analyzed and plotted using GraphPad Prism 9.0.1.
(In general: Resazurin is reduced to fluorescent resorufin, in cell work by metabolically active cells.)

The nature of data set [2]: EPSA determination by supercritical fluid chromatography. It counts as physicochemical. The following applies: modified EPSA method, SFC. Here is the method: […] by supercritical fluid chromatography: Compounds (A1) and 2-15 were tested by supercritical fluid chromatography (SFC) to determine their ESAPSA values. Samples were analyzed using a Chirex 3014 column ([…], 3×100 mm column, 100 Å pore size; Phenomenex. The starting conditions were 5% methanol containing 20 mM ammonium formate and 95% scCO2. The gradient was increased linearly to 60% methanol containing 20 mM ammonium formate in 4.5 min.

For data set [3], the system named is 92.1 uveal melanoma cell line (heterozygous GNAQ Q209L). Nature of the data set: Cell proliferation assay (resazurin cell viability), 92.1 cell line. It counts as cell-based.
Excerpt: as §1, §2

Data set [4] has as its system SK-MEL-30 skin melanoma cell line (heterozygous NRAS Q61K). Put plainly: Cell proliferation assay (resazurin cell viability), SK-MEL-30 cell line. It counts as cell-based.
Excerpt: as §1, §2

Data set [5] has as its system MDCK-LE monolayers. Put plainly: Cell-based transwell assay with MDCK-low efflux monolayers (passive permeability). It counts as in vitro ADME. The following applies: MDCK-LE monolayers. Here is the method:
Cell-based transwell assays with MDCK-low efflux monolayers: Compounds (A1) and 2-15 were tested in MDCK cell sub-clones with low effluxt ransporter activity (MDCK-LE) in order to determine their passive permeability. The incubations were performed at a contract research organization as described previously.

Data set [6] concerns MP41 uveal melanoma cell line (heterozygous GNA11 Q209L). Nature of the data set: Cell proliferation assay (resazurin cell viability), MP41 cell line. It counts as cell-based.
Excerpt: as §1, §2

Data set [7] relates to 92.1 and MP41 cell lines (GNAQ/GNA11 mutant uveal melanoma). Put plainly: Cell proliferation assays, potency ranking over both uveal melanoma lines. It counts as cell-based. The following applies: 92.1 and MP41 cell lines.
Excerpt: The selective antiproliferative profile of the chromodepsins against GNAQ/GNA11 mutant cell lines is confirmed by the lack of activity against the A375 and SK MEL 30 cell lines that are independent from GNAQ/GNA11 signaling. The potency ranking using the 92.1 and MP41 cell lines is in good agreement with the previously SAR studies. […] These findings are in line with a recent report from Voss et al., highlighting the importance of the “lipophilic anchors” of compound (A1) at the residues varied in compounds 2 and 3, in context of binding kinetics and prolonged residence time on the target proteins. The retained potency of compound 4 indicates a promising exit vector for potential synthetic or biosynthetic modifications of the scaffold. […] The linearized depsipeptides compounds 5-7 lack any antiproliferative activity. In this experimental setup, the cellular permeability of the compounds was a crucial factor contributing to the observed antiproliferative potency. Therefore, all compounds were characterized in a low efflux MCDK assay and determined their exposed polar surface areas (EPSA) in order to assess their passive cellular permeabilities. All macrocyclic chromodepsins that feature the N acyl Hle side chain show similar results concerning their % fraction absorbed (% FA; average ˜60% FA+20%) and EPSA values.
as §1, §2

The mark [8] stands for this setting: A375 (GNAQ/11 wild type), 96 hours of treatment, read-out: GI50 by cell line, A375.
Where [9] appears, read: A375 cell line, average of Rep. 1 and 2, read-out: GI50 A375 Average.
[10] abbreviates: A375 cell line, replicate 1, read-out: GI50 A375 Rep. 1.
The mark [11] stands for this setting: A375 cell line, replicate 2, read-out: GI50 A375 Rep. 2.
The mark [12] stands for this setting: 92.1 (GNAQ Q209L), 96 hours of treatment, read-out: GI50 by cell line, 92.1.
[13] abbreviates: 92.1 cell line, average of Rep. 1 and 2, read-out: GI50 92.1 Average.
The mark [14] stands for this setting: 92.1 cell line, replicate 1, read-out: GI50 92.1 Rep. 1.
[15] abbreviates: 92.1 cell line, replicate 2, read-out: GI50 92.1 Rep. 2.
Where [16] appears, read: SK-MEL-30 (GNAQ/11 wild type), 96 hours of treatment, read-out: GI50 by cell line, SK-MEL-30.
Setting [17] is: SK-MEL-30 cell line, average of Rep. 1 and 2, read-out: GI50 SK-MEL-30 Average.
The mark [18] stands for this setting: SK-MEL-30 cell line, replicate 1, read-out: GI50 SK-MEL-30 Rep. 1.
Where [19] appears, read: SK-MEL-30 cell line, replicate 2, read-out: GI50 SK-MEL-30 Rep. 2.
Setting [20] is: MP41 (GNA11 Q209L), 96 hours of treatment, read-out: GI50 by cell line, MP41.
Setting [21] is: MP41 cell line, average of Rep. 1 and 2, read-out: GI50 MP41 Average.
The mark [22] stands for this setting: MP41 cell line, replicate 1, read-out: GI50 MP41 Rep. 1.
Where [23] appears, read: MP41 cell line, replicate 2, read-out: GI50 MP41 Rep. 2.

Each structure is given as a SMILES string. Where two headings read alike, the source gives them in different places. Starred links: 1 amine or outer side, 2 acyl side, 3 side chain; linkers in the order of their positions; H or OH if unused. Positions of bridges follow the written chain, without caps; N, C: chain ends. Non-standard residues stand in square brackets, D forms with d. Residues, ends and D or L forms follow the SMILES beside them. *: point of attachment. Leu(3R-OH,Nα-propionyl) = CCC(=O)N[C@H](C(=O)*)[C@H](O)C(C)C; X1 = CC(C)[C@@H](O[*:3])[C@H](N[*:1])C(=O)[*:2]; NMeT = CN[C@H](C(=O)O)[C@@H](C)O; dPhLac = O=C(O)[C@H](O)Cc1ccccc1; NMeA = CN[C@@H](C)C(=O)O; dNMeA = CN[C@H](C)C(=O)O; NMeDha = C=C(NC)C(=O)O; Propionyl = CCC(=O)*

For orientation: GI50 means the concentration that inhibits growth by half.

Take `CCC(=O)N[C@H](C(=O)O[C@H](C(C)C)[C@@H]1NC(=O)[C@H](C)N(C)C(=O)[C@H](C)NC(=O)[C@@H](C)N(C)C(=O)[C@@H](Cc2ccccc2)OC(=O)[C@@H](NC(C)=O)[C@@H](C(C)C)OC(=O)[C@H]([C@@H](C)OC)N(C)C1=O)[C@H](O)C(C)C` [Compound 11] (Ac-[X1][dPhLac][dNMeA]A[NMeA][X1](Leu(3R-OH,Nα-propionyl))[NMeT](Me); ester 1-C): the GI50 is more than 260 nM in data set [1] (setting [8]); more than 260 nM in data set [1] (setting [9]); more than 260 nM in data set [1] (setting [10]); more than 260 nM in data set [1] (setting [11]); 1.8 nM in data set [3] (setting [12]); 1.8 nM in data set [3] (setting [13]). Further, the GI50 in data set [3] (setting [14]) is 1.4 nM; in data set [3] (setting [15]) it was 2.24 nM; in data set [4] (setting [16]), more than 260 nM; in data set [4] (setting [17]), more than 260 nM; in data set [4] (setting [18]), more than 260 nM; in data set [4] (setting [19]) it was more than 260 nM. Moreover, the GI50 in data set [6] (setting [20]) came to 0.7 nM; in data set [6] (setting [21]) it was 0.7 nM; in data set [6] (setting [22]), 0.54 nM; in data set [6] (setting [23]) it was 0.78 nM. Further, the EPSA in data set [2] was determined as 95 A^2. For the same molecule, the “% Fraction absorbed” value in data set [5] is listed as 79.5%. For the same molecule, the “% Recovery” value in data set [5] was 76%. Besides, the “Papp A − B” value in data set [5] was 8.5 ×10⁻⁶ cm/s. The “loss of potency compared to compound (A1) (growth inhibition)” value in data set [7] is “two to three”.

Regarding `C=C1C(=O)N[C@@H](C)C(=O)N(C)[C@@H](C)C(=O)N[C@@H]([C@H](OC(=O)[C@@H](NC(=O)CC)[C@H](O)C(C)C)C(C)C)C(=O)N(C)[C@@H]([C@@H](C)OC)C(=O)O[C@H](C(C)C)[C@H](NC(=O)CC)C(=O)O[C@H](Cc2ccccc2)C(=O)N1C` [Compound 9] (Propionyl-[X1][dPhLac][NMeDha]A[NMeA][X1](Leu(3R-OH,Nα-propionyl))[NMeT](Me); ester 1-C), the GI50 was more than 260 nM in data set [1] (setting [8]); more than 260 nM in data set [1] (setting [9]); more than 260 nM in data set [1] (setting [10]); more than 260 nM in data set [1] (setting [11]); 1.4 nM in data set [3] (setting [12]); 1.4 nM in data set [3] (setting [13]). Besides, the GI50 was 1.2 nM in data set [3] (setting [14]); 1.69 nM in data set [3] (setting [15]); more than 260 nM in data set [4] (setting [16]); more than 260 nM in data set [4] (setting [17]); more than 260 nM in data set [4] (setting [18]); more than 260 nM in data set [4] (setting [19]). The GI50 in data set [6] (setting [20]) stood at 0.7 nM; in data set [6] (setting [21]), 0.7 nM; in data set [6] (setting [22]), 0.6 nM; in data set [6] (setting [23]) it was 0.78 nM. Besides, the “loss of potency compared to compound (A1) (growth inhibition)” value in data set [7] is “two to three”.

In the case of `CCC(=O)N[C@H](C(=O)O[C@H](C(C)C)[C@@H]1NC(=O)[C@H](C)N(C)C(=O)[C@H](C)NC(=O)[C@H](C)N(C)C(=O)[C@@H](Cc2ccccc2)OC(=O)[C@@H](NC(C)=O)[C@@H](C(C)C)OC(=O)[C@H]([C@@H](C)OC)N(C)C1=O)[C@H](O)C(C)C` [Compound 10] (Ac-[X1][dPhLac][NMeA]A[NMeA][X1](Leu(3R-OH,Nα-propionyl))[NMeT](Me); ester 1-C), the GI50 in data set [1] (setting [8]) was more than 10000 nM; in data set [1] (setting [9]) it was more than 10000 nM; in data set [1] (setting [10]) it was more than 10000 nM; in data set [1] (setting [11]) it was more than 10000 nM; in data set [3] (setting [12]), 607 nM; in data set [3] (setting [13]), 607 nM. In addition, the GI50 in data set [3] (setting [14]) is 760 nM; in data set [3] (setting [15]), 453 nM; in data set [4] (setting [16]) it was more than 10000 nM; in data set [4] (setting [17]), more than 10000 nM; in data set [4] (setting [18]), more than 10000 nM; in data set [4] (setting [19]), more than 10000 nM. Besides, the GI50 in data set [6] (setting [20]) was found to be 396 nM; in data set [6] (setting [21]), 396 nM; in data set [6] (setting [22]), 419 nM; in data set [6] (setting [23]), 372 nM. Further, in data set [5], the “% Fraction absorbed” value was 37.6%. In addition, the “% Recovery” value in data set [5] was 77%. In addition, the “Papp A − B” value in data set [5] worked out at 2.03 ×10⁻⁶ cm/s. Further, the “loss of potency compared to compound (A1) (growth inhibition)” value in data set [7] is given as 25-30 fold.

The values above are taken from US20240252668A1, “ANTIBODY DRUG CONJUGATES AND METHODS FOR MAKING THEREOF” (Novartis AG, priority 2021, published 2024).
